# Measurements published in US10695355B2, “Methods for pharmacologic treatment of stroke” (University of Connecticut, priority 2017, dated 2020).
# Legend:
# [1] = tested on: Middle Cerebral Artery occlusion (MCAo) model, male C57B/6 mice; assay: Neurological deficit (ND) score after MCAo stroke; assay type: in vivo
# Text: (§1) Middle cerebral artery occlusion and bilateral ovariectomy: We induced focal transient cerebral ischemia by a 60-minute right middle cerebral artery occlusion (MCAo) under isoflurane anesthesia followed by reperfusion for either 3, 15, or 30 days. […] The 15- and 30-day time points represent sub-acute and chronic recovery as discussed in the art. Briefly, we performed a midline ventral neck incision and unilateral right MCAo by advancing a 6.0 silicone rubber-coated monofilament (Doccol Corporation, CA) 10-11 mm from the internal carotid artery bifurcation via an external carotid artery stump. We monitored rectal temperatures with a temperature control system (Fine Science Tools, Canada), maintaining the temperature at approximately 37° C. during surgery with an automatic heating pad. We used laser doppler flowmetry (DRT 4/Moor Instruments Ltd, Devon, UK) to measure cerebral blood flow and to confirm occlusion (reduction to 15% of baseline cerebral blood flow) and reperfusion. All animals were fed with wet mash for one week after surgery to ensure adequate nutrition for chronic endpoints, as animals have rearing deficits after stroke. In sham mice, we performed identical surgeries except the suture was not advanced into the internal carotid artery. For the gonadal hormone-mediated outcome study, we ovariectomized (ovxed) female mice two weeks prior to stroke surgery.
# Neurological deficit score: The neurological deficit (ND) score is a crude assessment of post-stroke behavioral recovery. We recorded ND scores, ranging from 0 to 4, at several time points after stroke. Our standard scoring system was as follows: 0, no deficit; 1, forelimb weakness and torso turning to the ipsilateral side when held by the tail; 2, circling to affected side; 3, unable to bear weight on affected side; and 4, no spontaneous locomotor activity or barrel rolling.
# Male C57B/6 (2-3 month old; 22-28 g) mice were used in this experiment. The ischemia duration was 60 minutes, with reperfusion for 72 hours. […]
# Solubility in water/PBS = assay type: physicochemical
# [2] = tested on: Middle Cerebral Artery occlusion (MCAo) model, male C57B/6 mice; assay: Infarct volume after middle cerebral artery occlusion (MCAo) stroke; assay type: in vivo; settings: 60 min ischemia, 72 h reperfusion, vs vehicle
# Text: as §1
# Cresyl violet staining for infarct volume and tissue atrophy analysis: We measured tissue infarct (day 3) or tissue atrophy (day 30) after stroke as described in the art. Briefly, we sacrificed the mice after stroke surgery with an overdose of Avertin (250 mg/kg intraperitoneally, i.p). After blood collection by cardiac puncture, we performed trans-cardiac perfusion on the mice using cold phosphate buffered saline (PBS) followed by 4% paraformaldehyde. Brains were then fixed overnight and placed in cryoprotectant (30% sucrose in PBS) for 72 hours before processing. We then sliced the brains into 30-μm free-floating sections using a freezing microtome; every eighth slice was mounted and stained with cresyl violet. […]
# [3] = tested on: Middle Cerebral Artery occlusion (MCAo) model, male C57B/6 mice; assay: Open field test (exploratory activity, anxiety-like behavior) after MCAo stroke; assay type: in vivo; settings: first dose 4 hour after stroke, reperfusion 30 days
# Text: (§2) Sensory motor deficit test: We used the open field test (OFT) and rotarod test to measure spontaneous locomotor activity/anxiety-like behavior and motor balance coordination, respectively, at baseline and post-mcao days 2, 7, 14, 21, and 28. As the OFT is a non-stressful test, we performed the OFT prior to the rotarod test, on the same day with one hour difference between tests.
# Open field test: The OFT is a common measure of exploratory behavior and general activity in rodents, which can be used both qualitatively and quantitatively. Briefly, we placed mice in a corner of a clear acrylic box (16″×16″) and allowed them to explore the box for ten minutes. We quantified locomotor activity as the total number of beam breaks by a computer-operated, open-field photobeam activity system (San Diego Instruments, San Diego, Calif.). We calculated the percentage of beam breaks in the center zone (16/3″×16/3″) compared to the total as a measure of anxiety-like behavior. Importantly, OFT tests can be administered at several time points to view trends without hindrance by habituation.
# Male C57B/6 (2-3 month old; 22-28 g) mice were used in a Middle Cerebral Artery occlusion (MCAo) model. The ischemia duration was 60 mins and the reperfusion was 30 days. […] Vehicle was 1% DMSO in 0.5% methyl cellulose (n=5 Behaviors were measured weekly using methods described above. (n=7).
# [4] = tested on: Middle Cerebral Artery occlusion (MCAo) model, male C57B/6 mice; assay: Rotarod test (sensorimotor deficit) after MCAo stroke; assay type: in vivo; settings: 0.5 mg/kg p.o./day for 3 days, first dose 4 hour after stroke; reperfusion 30 days, measured weekly; drug vs vehicle
# Text: as §2
# Rotarod test: The rotarod test examines motor coordination in mice. We placed mice on a rotating cylindrical rod accelerating from two to ten rotations per minute, over a span of five minutes. Each subject performed two trials with a 20-minute break between the two trials. We recorded the latency to fall from the rotating rod for each trial (in seconds), and used the mean latency for comparison between groups.
# Male C57B/6 (2-3 month old; 22-28 g) mice were used in a Middle Cerebral Artery occlusion (MCAo) model. The ischemia duration was 60 mins and the reperfusion was 30 days. The drug was 5-BDBD- (0.5 mg/kg p.o./day in 1% DMSO and 0.5% methyl cellulose suspension) administered for 3 days. The first dose was given at 4 hour after stroke. Vehicle was 1% DMSO in 0.5% methyl cellulose (n=5 Behaviors were measured weekly using methods described above. (n=7).
# [5] = 0.5 mg/kg p.o./day for 3 days, first dose 4 hour after stroke, cresyl violet
Structure (SMILES),"ND score ([1]; 0.5-5 mg/kg in 1xPBS via Alzet mini osmotic pump (SC) for 3 days, after 3 days of stroke, vs vehicle)",solubility (Solubility in water/PBS),"stroke infarct size ([2]; 0.5-5 mg/kg in 1xPBS via Alzet mini osmotic pump (SC) for 3 days, TTC)","Neurological deficit score measured after 3 days of stroke ([1]; 0.5 mg/kg p.o./day for 3 days, first dose 4 hour after stroke, 60 min ischemia, vs vehicle)","neurological deficit (ND) score ([1]; oral 0.5 mg/kg daily for 5 days beginning on the day of stroke, MCAo 60 minute followed by reperfusion)",post stroke anxiety (% C/P = % time spent in center/time spent in periphery) ([3]; 0.5 mg/kg p.o./day for 3 days (acute treatment)),"total exploratory activity ([3]; 0.5 mg/kg p.o./day for 3 days, drug vs vehicle)",rotarod test (test for sensorimotor deficit) [4],"cortical infarct volume [2, 5]","hemispheric infarct volume [2, 5]"
"O=C1CC(=O)N(c2cccc(-c3noc(=S)[nH]3)c2)c2ccc3ccccc3c2N1 [NP-1815-PX, 5-[3-(5-thioxo-4H-[1,2,4]oxadiazol-3-yl)phenyl]-1H-naphtho[1,2-b][1,4]diazepine-2,4(3H,5H)-dione]",improve,Water/PBS Soluble,could reduce,,,,,,,
"O=C1CN=C(c2cccc(Br)c2)c2oc3ccccc3c2N1 [5-BDBD, 5-(3-Bromophenyl)-1,3-dihydro-2H-Benzofuro[3,2-e]-1,4-diazepin-2-one]",,,,reduces,improved significantly,reduces post stroke anxiety up to a month,similar,overall significant difference,reduces,reduces
